The source of these data is patent publication US9303061B2, “Spiro compounds as Hepatitis C virus inhibitors” (Sunshine Luke Pharma Co., Ltd., priority 2011, dated 2016).

The structures appear in SMILES notation. pEC50: −log10 of the molar value.

One assay concerns HCV GT1a replicon cells. Put plainly: HCV replicon assay, GT1a replicon cells (luciferase reporter / NEO gene qPCR). It is filed as cell-based. The settings on record: Hepatitis C virus, GT1A, EC50 range against HCV 1a genotype, 72 hours incubation. As to the method: (§1) An HCV Replicon assay was utilized in the present disclosure, and was prepared, developed and validated as described in Science, 1999, 285 (5424), 110-3 and J. Virol., 2003, 77 (5), 3007-19.
(§2) HCV GT1a, GT1b and GT2a replicon cells were used to test the currently described compound series as well as wild-type cells HCV 1b and resistant cells Y93H, L31F, P32L and 1302V. GT1a, GT1b and GT2a are HCV Replicon System which is transfected HCV 1a, 1b, 2a genotype respectively. The system containing G418 resistance gene NEO and Luciferase Reporter Gene can be used to determine the level of HCV replication, and evaluate the effects of the compounds inhibiting HCV replication, by using a real-time quantitative polymerase chain reaction (qPCR) method to detect NEO, and chemiluminescence method to test Luciferase Reporter Gene.
(§3) 1. Testing EC50 of the Compounds by Luciferase Assay
(§4) The GT1a cells and GT1b cells were seeded into 96-well plates (8,000 cells in 125 μl/well) respectively; each compound was diluted to desired concentration using 5-fold serial dilutions protocol, 10 dose in duplicate, and added to wells with POD™ 810 Plate Assembler. The final concentration of DMSO was 0.5%; the plates were incubated in a CO2 incubator for 72 hours; after that, 40 μl of Luciferase assay substrate (Promega Bright-Glo) was added to each well, and detected by a chemiluminescence detection system (Topcount Microplate Scintillation and Luminescence Counter) 5 minutes later; data analysis.
(§5) 2. Testing EC50 of the Compounds by Detecting Antibiotic G418 Resistance Gene NEO Gene
(§6) The GT1a cells and GT1b cells were seeded into 96-well plates (8,000 cells in 125 μl/well) respectively; each compound was diluted to desired concentration using 5-fold serial dilutions protocol, 10 dose in duplicate, and added to wells with POD™ 810 Plate Assembler, the final concentration of DMSO was 0.5%; the cells were incubated in a CO2 incubator for 72 hours; quantitative PCR. • Sample preparation: the supernatant was removed, 100 μl of FCW buffer solution was added to each well, washed carefully and discarded the solution; 50 μl of lysate FCP was added to each well, the cells was lysed as PCR template and PCR template was diluted with DEPC water as sample template. • Quantitative PCR: preparation of reaction mixture according to PCR system; the reaction mixture was dispensed into a 384-well PCR reaction plate (specially for quantitative); and a standard template which was diluted in proportion was distributed into the plate; and the sample template was distributed into the plate; then the 384-well plate was sealed with closure plate membrane; the […] PCR machine was operated by procedures; data analysis.
(§7) 3. Data processing: EC50 values of compounds were analyzed by GRAPHPAD PRISM® software.

Another assay has as its system HCV GT1b replicon cells. Description: HCV replicon assay, GT1b replicon cells (luciferase reporter / NEO gene qPCR). It is filed as cell-based. The settings on record: Hepatitis C virus, GT1B, 72 h, EC50 range against HCV 1b genotype, 72 hours incubation. As to the method: as §1, §2, §3, §4, §5, §6, §7
Background: In antiviral work, replicon cells carry a viral genome segment that copies itself.

The term pEC50 denotes the negative decadic logarithm of the EC50, by convention in mol/L. High values mean a small EC50, low ones a large EC50. For the compound `COC(=O)NC(C(=O)N1CC2(C[C@H]1c1ncc(-c3ccc(-c4ccc(-c5cnc([C@@H]6CCCN6C(=O)[C@@H](NC(=O)OC)C(C)C)[nH]5)c5c4CC4(CCCC4)C5)cc3)[nH]1)OCCO2)C(C)C` (stereo partly shown) [Example 51], the pEC50 with HCV GT1a replicon cells was 10.00 to 12.00; with HCV GT1b replicon cells it was under 8.00.
`COC(=O)N[C@H](C(=O)N1C[C@H](F)C[C@H]1c1ncc(-c2ccc(-c3ccc(-c4cnc([C@@H]5C[C@@H](F)CN5C(=O)[C@@H](NC(=O)OC)C(C)C)[nH]4)c4c3CC3(CCCC3)C4)cc2)[nH]1)C(C)C` [Example 29]: the pEC50 in the assay on HCV GT1a replicon cells and with HCV GT1b replicon cells was 10.00 to 12.00 throughout.
`COC(=O)N[C@H](C(=O)N1CC(F)(F)C[C@H]1c1ncc(-c2ccc(-c3ccc(-c4cnc([C@@H]5CC(F)(F)CN5C(=O)[C@@H](NC(=O)OC)C(C)C)[nH]4)c4c3CC3(CCCC3)C4)cc2)[nH]1)C(C)C` [Example 15]: the pEC50 in the assay on HCV GT1a replicon cells is 10.00 to 12.00; with HCV GT1b replicon cells, under 8.00.
Regarding `COC(=O)N[C@H](C(=O)N1C(c2ncc(-c3ccc(-c4ccc(-c5ccc6nc([C@@H]7CC8CC8N7C(=O)[C@@H](NC(=O)OC)C(C)C)[nH]c6c5)c5c4CC4(CCCC4)C5)cc3)[nH]2)CC2CC21)C(C)C` (stereo partly shown) [Example 54], the negative-log EC50 (pEC50) with HCV GT1a replicon cells is 10.00 to 12.00; with HCV GT1b replicon cells, 9.00 to 10.00.
For the compound `COC(=O)N[C@H](C(=O)N1CCC[C@H]1c1ncc(-c2ccc(-c3ccc(-c4cnc([C@@H]5CCCN5C(=O)[C@@H](NC(=O)OC)c5ccccc5)[nH]4)c4c3CC3(CCCC3)C4)cc2)[nH]1)c1ccccc1` [Example 16], the negative-log EC50 (pEC50) is 10.00 to 12.00 in the assay on HCV GT1a replicon cells and under 8.00 with HCV GT1b replicon cells.
